What was measured:
[1] = system: aldosterone-infused, saline-drinking, uni-nephrectomized rats; experiment: Assay B: heart histology (hematoxylin&eosin), vascular inflammatory lesions and myocardial injury; assay type: in vivo, Male Sprague Dawley rats; conditions: eplerenone 100 mpk p.o., 0.6% KCl group, 4 weeks
Experimental: Assay B: In Vivo Aldosterone Infusion Model Male Sprague Dawley rats (n=39; BW=250 g) […] Uni-nephrectomy performed during implantation of mini-pumps 2. Aldosterone ([…], sc via alzet minipump) 2. […] 1. […] Sacrifice after 4 weeks. Hearts were harvested and divided by half through a transverse section at the mid-ventricles: The upper half was stored into formalin. The bottom part was snap-frozen in liquid nitrogen for biochemical analysis. Hearts were stained with hematoxylin&eosin and the collagen specific dye picro-sirius red and were analyzed for determination of interstitial collagen volume fraction and morphologic abnormalities (i.e. necrosis, vascular injury).

[2] = system: osteopontin; experiment: Assay B: osteopontin immunohistochemistry in the heart; assay type: in vivo, Male Sprague Dawley rats; conditions: aldosterone-infused rats; eplerenone 100 mpk; increased dietary potassium group
Experimental: Assay B: In Vivo Aldosterone Infusion Model Male Sprague Dawley rats (n=39; BW=250 g) 2. Aldosterone (0.75 mg/hr, sc via alzet minipump) 2. […] Determination of osteopontin and COX-2 was performed by quantitative RT-PCR (Taqman). Osteopontin was also identified in the heart by immunohistochemistry.

[3] = system: angiotensin II infused rats; experiment: Assay A, angiotensin II infusion model: systolic blood pressure by tail-cuff; assay type: in vivo, Male Wistar rats; conditions: angiotensin II 25 ng/min sc, 1% NaCl; eplerenone 100 mpk; aldosterone in adrenalectomized rats; 4 weeks
Experimental: Human cardiovascular disorders are complex conditions, often initiated by vascular hypertension or a myocardial infarction (MI). In order to determine the probable effectiveness of a therapy for cardiovascular disorders, it is important to determine the potency of components in several assays. Accordingly, in Assay “A”, the efficacy of the aldosterone antagonist epeplerenone (epoxymexrenone) was determined in a hypertensive rat model with vascular inflammation, using angiotensin II infusion. In Assay “B” a study is described evaluating the efficacy of the aldosterone antagonist epeplerenone (epoxymexrenone) in a rat model using aldosterone infusion to produce hypertension with vascular inflammation. In Assay “C” a further study is described evaluating the efficacy of the aldosterone antagonist epeplerenone (epoxymexrenone) in a rat model using aldosterone infusion to produce hypertension with vascular inflammation.
Assay A: In Vivo Angiotensin II Infusion Model
Male Wistar rats (n=50, 10/group; BW=200 g)
SBP measured by tail-cuff every week

[4] = system: coronary arteries of angiotensin II/salt-treated animals; experiment: Assay A: heart histology (hematoxylin&eosin), vascular inflammatory lesions and myocardial injury; assay type: in vivo, Male Wistar rats; conditions: of ten animals per group; angiotensin II/salt; eplerenone 100 mpk; 4 weeks
Excerpt: Sacrifice by exanguination after 4 weeks. Blood was be collected in dry tubes for determination of serum electrolytes and in EDTA-containing tubes for measurement of aldosterone and corticosterone levels Hearts were stained with hematoxylin&eosin and have been analyzed for determination of morphologic abnormalities (i.e. necrosis, vascular injury).

Compound | Vascular inflammatory changes / myocardial injury [1] | Osteopontin expression in the heart (immunostaining) [2] | Systolic Blood Pressure [3] | Animals with vascular inflammatory changes (lesions) in the coronary arteries [4]
[Cl-].[K+] [dietary potassium] | did not have significant effects | did not reduce osteopontin expression | – | –
angiotensin II: infused 25 ng/min sc via alzet minipump to produce hypertensive rat model with vascular inflammation (DRVYIHPF; Angiotensin-2; UniProt P01015 25-32, looked up) | – | – | increased | Seven out of the ten
